These results are taken from patent publication USH25H, “Thiophosphoryl triamide as a urease inhibitor” (Tennessee Valley Authority, priority 1985, dated 1986).

Assay [1] has as its system soil urease (Crowley silt loam). The assay can be described thus: Well-mixed inhibitor-soil incubation test, urea added at intervals (modified Douglass and Bremner procedure). The following applies: for Percent urea unhydrolyzed (higher = more urease inhibition): 7 micromoles per 120 g Crowley soil, 30° C., 16 hours with urea. The class given is biochemical. As for the experimental part:
Test compounds in Example II, infra, were evaluated in soil systems by a modification of the Douglass and Bremner procedure [L. A. Douglass and J. W. Bremner, Soil Biol. Biochem. 3, 309-315 (1971)] in which solutions or suspensions of the test compounds were mixed throughout the soil. Then at selected time intervals urea was added to the soil-inhibitor mixtures. The advantage of this procedure is that soil urease inhibition by the test compounds can be detected for time periods lasting up to several weeks or longer.
(§1) Specifics of the procedure for evaluating the test compounds in Example II were the following. Urease-active soil (Crowley silt loam from Louisiana) was moistened to a moisture content of 16% (dry weight basis) and preincubated at room temperature for two days. One milliliter of solution or suspension containing 7 micromoles of each test compound was added to 120 g of moist soil and mixed well. Polyvinylchloride cylinders 12-cm long and 4 cm in diameter were filled with the inhibitor-soil mixtures, packed to a bulk density of about 0.9 g/cm^3, and covered with a perforated plastic film. […] At each time interval, 1 ml of urea solution containing 50 mg of urea was mixed well with the inhibitor-soil mixture from a single column. The urea-inhibitor-soil mixture was packed in a column to a bulk density of about 0.9 g/cm^3, covered with a perforated plastic film, and reincubated for 16 hours at 30° C. Following the 16 hours of reincubation, about 120 g of the urea-inhibitor-soil mixture was extracted with 250 ml of 2 M KCl containing 5 ppm of […]. The KCl-PPDA extracts were analyzed on the Auto Analyzer II [Technicon method No. 40001 FD4, Technicon, Tarrytown, N.Y., U.S.A. (1974)]. Three replicates were used on all treatments and checks.
as §1, with “are as follows.” for “were the following.”, “New York,” for “N.Y.,”, “checks. Two groups of compounds were tested as indicated in Table IV as Test Series I and Test Series II.” for “checks.”

For assay [2], the system named is urease. The settings on record: IFDC, unpublished results; cited from earlier work.
The test system of assay [3] is urease. The following applies: literature and earlier patents; cited from earlier work.
Assay [4] deals with soil urease (Hastings silt loam). The assay can be described thus: Urea hydrolysis in bands of urea plus inhibitor in soil (banded soil system). The settings on record: for % inhibition, as measured by percent urea unhydrolyzed: 41 mg inhibitor + 410 mg urea per band, Hastings silt loam, 25° C. The assay is classed as biochemical. An excerpt:
Another advantage of the banded configuration compared with mixing throughout the soil is that slightly soluble test compounds can be easily band applied, whereas it is difficult to achieve a known degree of mixing of a small quantity of slightly soluble test compound with soil. The banded configuration also enables testing for urease inhibition under realistic soil conditions prior to the development of techniques for cogranulating a wide range of test compounds with urea. […] Urease-active soil (Hastings silt loam) was moistened to a moisture content of 20% (dry weight basis) and preincubated at room temperature for two days. Plexiglas containers (6×6×6 -cm) were one-half filled with soil and packed to a bulk density of 1.1 g/cm^3. Urea or urea plus inhibitor (thoroughly mixed) was distributed in a narrow band 6-cm long on the soil surface. The containers then were filled with soil, again packing to a bulk density of 1.1 g/cm^3. The containers were incubated at 25° C. for the desired reaction period, after which the containers were frozen to about -5° C. to stop urea hydrolysis. Immediately prior to extracting the remaining urea from the soil, said soil was allowed to thaw. Soil from each container was thoroughly mixed, and a 10-g sample was extracted with 100 ml of 2 M KCl containing phenylmercuric acetate to prevent urea hydrolysis during handling [L. A. Douglass and J. M. Bremner, Soil Sci. Soc. Am.
Urease-active soil (Hastings silt loam) was moistened to a moisture content of 20% and preincubated at room temperature for two days. Plexiglas containers (6×6×6 cm) were one-half filled with soil and packed to a bulk density of 1.1 g/cm^3. Urea or urea plus inhibitor (thoroughly mixed) was distributed in a narrow band 6-cm long on the surface of the soil. The containers then were filled with soil and again packed to a bulk density of 1.1 g/cm^3. The containers were incubated at 25° C. for the desired reaction period. The soil from each container was thoroughly mixed, and a 10-g sample was extracted with 100 ml of 2 M KCl containing 5 ppm phenylmercuric acetate to prevent urea hydrolysis during handling [L. A. Douglass and J. M. Bremner, Soil Sci. Soc. Am. […] The urea in the extracts was determined colorimetrically as a measure of the unhydrolyzed urea.

[5] abbreviates: Test Series I, inhibitor incubation 0 days.
The mark [6] stands for this setting: Test Series I, inhibitor incubation 3 days.
The mark [7] stands for this setting: Test Series I, inhibitor incubation 7 days.
Where [8] appears, read: Test Series I, inhibitor incubation 14 days.
The mark [9] stands for this setting: Test Series I, inhibitor incubation 21 days.
Setting [10] is: Test Series I, inhibitor incubation 35 days.
The mark [11] stands for this setting: Test Series II, inhibitor incubation 0 days.
The mark [12] stands for this setting: Test Series II, inhibitor incubation 7 days.
Where [13] appears, read: Test Series II, inhibitor incubation 15 days.
The mark [14] stands for this setting: Test Series II, inhibitor incubation 21 days.

As for `NP(N)(=O)Oc1ccccc1` [PPDA, Phenyl phosphorodiamidate], the “Percent urea unhydrolyzed (higher = more urease inhibition)” value in assay [1] (setting [5]) was found to be 100%; in assay [1] (setting [6]), 65%; in assay [1] (setting [7]), 59%; in assay [1] (setting [8]), 33%; in assay [1] (setting [9]), 13%; in assay [1] (setting [10]), 2%. Also, the “Percent urea unhydrolyzed (higher = more urease inhibition)” value was 89% in assay [1] (setting [11]), 38% in assay [1] (setting [12]), 37% in assay [1] (setting [13]) and 11% in assay [1] (setting [14]). Also, the “type of urease inhibition” value in the assay with urease [2] is “competitive inhibition”. Besides, the “urease inhibition (in words) reported by previous workers” value (“urease inhibition (in words) reported” for short) in the assay on urease [3] is “extremely potent inhibitor of urease activity”. The “% inhibition, as measured by percent urea unhydrolyzed” value in assay [4] (Test Series I, 3 days) is listed as 62.6%; in assay [4] (Test Series I, 6 days), 10.1%; in assay [4] (Test Series II, 0 days) it was 96.4%; in assay [4] (Test Series II, 3 days) it was 90.3%; in assay [4] (Test Series II, 6 days), 58.2%.
For the compound `NP(N)(N)=O` [PTA, Phosphoryl triamide], the “urease inhibition (in words) reported” value in the assay with urease [3] is given as “powerful urease inhibitors”. Moreover, the “% inhibition, as measured by percent urea unhydrolyzed” value in assay [4] (Test Series I, 3 days) amounted to 54.6%; in assay [4] (Test Series I, 6 days), 2.6%.
Turning to `NP(N)(=S)Oc1ccccc1` [PTPDA, Phenylthiophosphenyl diamidate], the “Percent urea unhydrolyzed (higher = more urease inhibition)” value was found to be 56% in assay [1] (setting [11]), 21% in assay [1] (setting [12]), 24% in assay [1] (setting [13]) and 2% in assay [1] (setting [14]). The “urease inhibition (in words) reported” value with urease [3] was “less effective as an inhibitor”. In addition, the “% inhibition, as measured by percent urea unhydrolyzed” value is recorded as 100.0% in assay [4] (Test Series II, 0 days); 97.2% in assay [4] (Test Series II, 3 days); 65.7% in assay [4] (Test Series II, 6 days).
Turning to `NP(N)(N)=S` [TPTA, Thiophosphoryl triamide], the “Percent urea unhydrolyzed (higher = more urease inhibition)” value in assay [1] (setting [5]) was found to be 59%; in assay [1] (setting [6]), 54%; in assay [1] (setting [7]) it was 54%; in assay [1] (setting [8]) it was 19%; in assay [1] (setting [9]) it was 27%; in assay [1] (setting [10]) it was 2%. The “Percent urea unhydrolyzed (higher = more urease inhibition)” value in assay [1] (setting [11]) is 47%; in assay [1] (setting [12]), 13%; in assay [1] (setting [13]) it was 37%; in assay [1] (setting [14]) it was 18%. Besides, the “urease inhibitory activity remaining after long inhibitor incubation (in words)” value in assay [1] (up to 21 days incubation, Table IV, FIGS. 3 and 4) is reported as “superior”. Further, the “urease inhibition (in words) reported” value in the assay with urease [3] is recorded as “ineffective as a urease inhibitor”. In assay [4] (Table III, FIGS. 1 and 2, three-day and six-day tests), the “effectiveness as an inhibitor of soil urease activity compared with PPDA (in words)” value is listed as “superior to PPDA”. The “% inhibition, as measured by percent urea unhydrolyzed” value in assay [4] (Test Series I, 3 days) is reported as 71.7%; in assay [4] (Test Series I, 6 days) it was 34.9%; in assay [4] (Test Series II, 0 days) it was 100.0%; in assay [4] (Test Series II, 3 days) it was 88.0%; in assay [4] (Test Series II, 6 days), 61.1%.
For the compound `NP(N)(=O)O` [diamidophosphoric acid], the “urease inhibition (in words) reported” value in the assay on urease [3] is given as “effective urease inhibitors”.
Regarding `Oc1ccc(O)cc1` [hydroquinone], the “type of urease inhibition” value in the assay on urease [2] is reported as “mixed inhibition mechanism”.
Consider `NP(=O)(O)O` [monoamidophosphoric acid], for which, in the assay on urease [3], the “urease inhibition (in words) reported” value is “effective urease inhibitors”.
